From ChEMBL document CHEMBL1201862, “PubChem BioAssay data set” (2004)
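How tested: cells in 96-well plates exposed to compound for 48 hours at five concentrations. GI50 is the concentration that inhibits growth by half.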 Active and inactive are the calls of the source. Rule as the data show it: active = GI50 up to about 1.1 µM and inactive = higher.

Tests used:
Experiment in all cases: NCI anticancer screen, dose series, 48 h
HCT-116 = tested on: HCT-116
A549 = tested on: A549
U-251 = tested on: U-251
NCI-H460 = tested on: NCI-H460
UACC-257 = tested on: UACC-257
CAKI-1 = tested on: CAKI-1
SF-539 = tested on: SF-539
SF-268 = tested on: SF-268
MCF7 = tested on: MCF7
SK-MEL-5 = tested on: SK-MEL-5
SW-620 = tested on: SW-620
T47D = tested on: T47D
Malme-3M = tested on: Malme-3M
SF-295 = tested on: SF-295
ACHN = tested on: ACHN
EKVX = tested on: EKVX
NCI/ADR-RES = tested on: NCI/ADR-RES
MDA-N = tested on: MDA-N
SR = tested on: SR

Measured: GI50

N#Cc1c(C#N)c(SSc2c(C#N)c(C#N)c(N)n2-c2ccccc2)n(-c2ccccc2)c1N
inactive: HCT-116 3.33 µM | A549 36 µM | U-251 21.6 µM | NCI-H460 30.6 µM | UACC-257 24.8 µM | CAKI-1 2.14 µM | SF-539 92.9 µM | SF-268 27.7 µM | MCF7 2.39 µM | SK-MEL-5 6.22 µM | SW-620 1.77 µM | T47D 2.44 µM | Malme-3M 2 µM | SF-295 24.9 µM | ACHN 5.08 µM | EKVX 20.9 µM | NCI/ADR-RES 33.8 µM | MDA-N 28.8 µM

C/C(=C\c1ccccc1)C(=O)NCc1ccc(C(=O)NCCC(C)C)cc1
inactive: HCT-116 65 µM | A549 > 100 µM | U-251 86.7 µM | NCI-H460 > 100 µM | UACC-257 > 100 µM | CAKI-1 93.8 µM | SF-539 32.9 µM | SF-268 42.6 µM | MCF7 > 100 µM | SK-MEL-5 > 100 µM | SW-620 > 100 µM | T47D > 100 µM | Malme-3M > 100 µM | SF-295 37 µM | ACHN 55.6 µM | EKVX 76.4 µM | NCI/ADR-RES 45.5 µM | MDA-N > 100 µM

Cc1ccc(S(=O)(=O)c2ccsc2NC(=O)C(F)(F)F)cc1
inactive: HCT-116 28.6 µM | A549 34 µM | U-251 70.8 µM | NCI-H460 27.3 µM | UACC-257 30.3 µM | CAKI-1 34.9 µM | SF-539 39.7 µM | SF-268 28.3 µM | MCF7 44.8 µM | SK-MEL-5 20.2 µM | SW-620 57.3 µM | T47D 39.3 µM | Malme-3M 40.7 µM | SF-295 37.8 µM | ACHN 39.2 µM | EKVX 46.6 µM | NCI/ADR-RES 31.7 µM | MDA-N 23.6 µM

COc1ccc2nc3ccc(OC)cc3c(SCc3ccc([N+](=O)[O-])cc3)c2c1
inactive: HCT-116 70.3 µM | A549 > 100 µM | SR > 100 µM | U-251 > 10 µM | NCI-H460 > 100 µM | UACC-257 > 100 µM | CAKI-1 44.1 µM | SF-539 39.2 µM | SF-268 54.7 µM | SW-620 > 100 µM | T47D > 100 µM | Malme-3M > 100 µM | SF-295 31.5 µM | ACHN 79.1 µM | EKVX > 100 µM | NCI/ADR-RES 67 µM | MDA-N > 100 µM

CC(C)(C)C1=NC(=P(c2ccccc2)(c2ccccc2)c2ccccc2)C(=O)O1
inactive: HCT-116 > 100 µM | A549 > 100 µM | SR > 100 µM | U-251 > 100 µM | UACC-257 > 100 µM | CAKI-1 > 100 µM | SF-268 > 100 µM | MCF7 > 100 µM | SK-MEL-5 > 100 µM | SW-620 > 100 µM | T47D > 100 µM | Malme-3M 98.4 µM | SF-295 > 100 µM | ACHN > 100 µM | EKVX 22.5 µM | NCI/ADR-RES > 100 µM | MDA-N > 100 µM

CCOC(=O)C1C(C(C)C)C2(C#N)C(=N)OC1(C)C2(C#N)C#N (centres undefined)
inactive: HCT-116 56 µM | A549 > 100 µM | U-251 82.4 µM | UACC-257 54.8 µM | CAKI-1 2.72 µM | SF-539 > 100 µM | SF-268 > 100 µM | MCF7 59.4 µM | SK-MEL-5 30.5 µM | SW-620 62.1 µM | T47D 49.7 µM | Malme-3M 40.8 µM | SF-295 > 100 µM | ACHN > 100 µM | EKVX 78.3 µM | NCI/ADR-RES 45.5 µM | MDA-N 16.2 µM

O=C(OC1OC2COC(=O)c3cc(O)c(O)c(O)c3-c3c(cc(O)c(O)c3O)C(=O)OC3C2OC(=O)[C@@]24CC(=O)[C@@](O)(OC25C(=O)O[C@H]2[C@@H](O)CO[C@@]25O)C2(O)Oc5c(O)c(O)cc(c5C24)C(=O)OC13)c1cc(O)c(O)c(O)c1 (some centres undefined)
inactive: HCT-116 36.9 µM | A549 27.7 µM | SR 30.3 µM | U-251 39.6 µM | NCI-H460 40.9 µM | UACC-257 > 100 µM | CAKI-1 12.1 µM | SF-268 58.6 µM | MCF7 13.6 µM | SK-MEL-5 42.7 µM | SW-620 41.2 µM | T47D 74 µM | Malme-3M > 100 µM | SF-295 44 µM | ACHN 32.1 µM | EKVX 34.8 µM | NCI/ADR-RES 29.2 µM | MDA-N 31.5 µM

CN1CCC/C1=C1/C(=O)N(c2ccccc2)N=C1c1ccc[nH]1
inactive: HCT-116 > 100 µM | A549 > 100 µM | SR > 100 µM | U-251 > 100 µM | NCI-H460 > 100 µM | UACC-257 > 100 µM | CAKI-1 > 100 µM | SF-268 > 100 µM | MCF7 > 100 µM | SK-MEL-5 > 100 µM | SW-620 > 100 µM | T47D > 100 µM | Malme-3M > 100 µM | SF-295 > 100 µM | ACHN > 100 µM | EKVX > 100 µM | NCI/ADR-RES > 100 µM | MDA-N > 100 µM

CCN1CCc2sc3nc(S)n(C)c(=O)c3c2C1
inactive: HCT-116 > 100 µM | A549 > 100 µM | U-251 > 100 µM | NCI-H460 > 100 µM | UACC-257 > 100 µM | CAKI-1 > 100 µM | SF-539 > 100 µM | SF-268 > 100 µM | MCF7 > 100 µM | SK-MEL-5 > 100 µM | SW-620 > 100 µM | T47D > 100 µM | Malme-3M > 100 µM | SF-295 > 100 µM | ACHN > 100 µM | EKVX > 100 µM | NCI/ADR-RES > 100 µM | MDA-N > 100 µM

N#CC(Cc1ccccc1)N(CCC1=CCCCC1)Cc1ccccc1 (centres undefined)
inactive: HCT-116 36.8 µM | A549 54.7 µM | U-251 81.7 µM | NCI-H460 62.2 µM | UACC-257 43.8 µM | CAKI-1 > 100 µM | SF-268 > 100 µM | MCF7 31.2 µM | SK-MEL-5 22.3 µM | SW-620 41.1 µM | T47D 47.3 µM | Malme-3M 40.8 µM | SF-295 61.5 µM | ACHN > 100 µM | EKVX 56.5 µM | NCI/ADR-RES 59.6 µM | MDA-N 32.4 µM

O=C(c1cccnc1)N1N=C(c2ccc(Cl)cc2)CC1(O)c1cc(F)c(Cl)cc1Cl (centres undefined)
inactive: HCT-116 8.3 µM | A549 24.9 µM | SR 8.85 µM | U-251 14.3 µM | NCI-H460 21.5 µM | UACC-257 18.5 µM | CAKI-1 28.5 µM | SF-539 12.2 µM | SF-268 19.2 µM | SK-MEL-5 11.3 µM | SW-620 22.2 µM | T47D 2.39 µM | Malme-3M 33.3 µM | SF-295 19.5 µM | ACHN 18.8 µM | EKVX 17.5 µM | NCI/ADR-RES 16 µM | MDA-N 16.7 µM
